Source: article PMC9606171, “Synthetic PPAR Agonist DTMB Alleviates Alzheimer’s Disease Pathology by Inhibition of Chronic Microglial Inflammation in 5xFAD Mice” (Neurotherapeutics, 2022)

Legend:
5xFAD mice [1] = test: RT-qPCR of magnetically sorted adult microglia; assay type: in vivo; conditions: adult microglia sorted from 5xFAD mice
Procedure: (§1) DTMB was synthesized from Daejung Chemicals (Korea) and was dissolved in dimethyl sulfoxide (Sigma Aldrich, St. Louis, MO, USA) for cell-based experiments. To evaluate the effects of DTMB on 5xFAD mice, DTMB (10 mg/kg) and vehicle (1% carboxymethylcellulose and 10% DMSO) were orally administrated to four groups (wild-type, wild-type + DTMB, 5xFAD, and 5xFAD + DTMB) with a 6 day per week for 3 months.
To isolate the adult microglia from DTMB- or vehicle-treated 5xFAD mice brain, magnetic-activated cell sorting (MACs) system was used. Whole brain tissue was dissociated to a single cell level using gentleMACs dissociation kit (Miltenyi Biotech, Bergisch Gladbach, Germany) according to manufacturer’s instruction. To separate the immune cell fraction, 47% percoll gradient was applied to single cell mixture and centrifuged at 2,000 rpm for 10 min. Adult microglia was isolated by LS column after incubating with anti-CD11b MicroBeads (Miltenyi Biotech). Separated adult microglia were used to analyze the expression of genes related to microglia activation and inflammation by performing RT-PCR. Sample sizes were 3 mice per group.

5xFAD mice [2] = test: Morris water maze in 5xFAD mice; assay type: in vivo; conditions: 10 mg/kg orally, 3 months
Procedure: as §1
A white water maze tank (120 cm diameter) was filled with water containing white non-toxic tempera paint to make the water opaque. The maze tank was divided into four quadrants, and four different visual cues were placed at each cardinal point. The water temperature was set to 20–22 °C. The Morris water maze experiment was divided into a training session, during which the mice were placed in the tank to find the platform for five consecutive days, followed by a probe test on day 6. Each mouse was trained over three trials per day and the starting quadrant was different for each trial. The duration of each training trials was 1 min and we guided the mice to the platform thereafter. In the probe test on day 6, the platform was removed, and each mouse was allowed to swim for 60 s. Target quadrant occupancy was measured automatically using a SMART v2.5 video tracking system (Panlab, TX, USA). Sample sizes were 20–25 mice per group.

5xFAD mice [3] = test: Bulk RNA-seq of hippocampus and cortex; assay type: in vivo
Procedure: as §1
RNA-seq libraries were prepared using the NEBNext® Ultra II Directional RNA Library Prep Kit for Illumina (BioLabs, MA, USA) and sequenced on Illumina HiSeq 2500 (San Diego, CA, USA). RNA-seq reads with adapter sequence were trimmed using cutadapt and aligned to the Mouse Ensemble Archive Release 100 by STAR [26]. Gene expression levels were quantified by RSEM [27]. Differential expression analysis was performed by DESeq2 [28], and functional enrichment of Gene ontology (GO) terms and pathways was estimated by Metascape. Pathway enrichment was estimated by GSEA [30] with the following options: “-metric log2_Ratio_of_Classes -permute gene_set.”

primary microglia = test: ELISA of proinflammatory cytokines, primary microglia; assay type: cell-based, mice; conditions: LPS or pre-aggregated human Aβ1-42, 24 h
Procedure: Primary microglia culture was conducted as described in a previous study. Mice at postnatal day 3 mice were used for the preparation of primary microglia. Newborn mice pups were anesthetized in ice and then sacrificed. Isolated cortex and hippocampus were collected after removing the meninges. Brain tissues were dissociated by incubating in HBSS (Gibco, Gaithersburg, MD, USA) with trypsin (2.5%) for 15 min. Cell homogenates were then incubated in M-CSF (20 ng/mL, R&D Systems) supplemented with DMEM-F12 medium with 10% fetal bovine serum, 10% horse serum, 1% GlutaMAX (Gibco, MD, USA), and 1% penicillin/streptomycin (Welgene, Korea). After 10 days, microglia were purified through shaking at 260 rpm for 2 h.
We measured cytokine level (TNF-α, IL-1β, and IL-6) in the media of LPS (1 μg/mL) and human Aβ1-42 (5 μg/mL)-treated BV2 microglia cells and primary microglia. Human Aβ1-42 (AnaSpec, Fremont, CA, USA) were pre-aggregated in the incubator for 24 h before the treatment to the cells. BV2 cells and primary microglia cells were seeded on 12-well plates (SPL) at a density of 1 × 10^5 cells/well cultured in 1 mL of complete media. After 12 h, LPS or human Aβ1-42 were treated to cells and were further incubated for 24 h with DTMB. […]

5xFAD mice [4] = test: qPCR and western blot of inflammation markers in 5xFAD brain; assay type: in vivo
Procedure: as §1
Cells were lysed with lysis buffer containing 50 mM Tris (pH 7.4), 140 mM NaCl, 5 mM EDTA, and a protease inhibitor tablet, followed by sonication. Lysate protein concentrations were determined using Bradford reagents (AMERSCO, MA, USA). Proteins were resolved by sodium dodecyl sulfate (SDS) polyacrylamide gel electrophoresis, transferred to nitrocellulose membranes (Pall Corporation, New York, NY, USA), and incubated with blocking buffer (5% nonfat dry milk in TBS and 0.1% Tween 20) for 30 min. Western blot analyses were performed using primary antibodies against NF-κB, NLRP3, ASC, nicastrin, pen2 (Cell Signaling Technology, Danvers, MA, USA), Aph1 (Invitrogen), amyloid C-terminal fragment (Santa Cruz Biotechnology, Dallas, TX, USA), and GAPDH (Bethyl Laboratories, Mongomery, TX, USA). Secondary antibodies of rabbit (Promega), rat, and goat (Bethyl Laboratories) were used, and detection was performed with SUPEX ECL reagent (Neuronex, Korea) and an ImageQuant LAS-4000 (GE Healthcare, MA, USA), according to the manufacturer’s instructions. The integrated blot density was quantified through ImageJ.
Total RNA was isolated using TRI Reagent (Molecular Research Center, Cincinnati, OH, USA). RNA was reverse transcribed using the ImProm-II™ Reverse Transcription System (Promega) according to the manufacturer’s instructions. For detection and quantification, a StepOnePlus Real-Time PCR System (Applied Biosystems, Foster City, CA, USA) was used with FastStart Universal SYBR Green Master (Roche, Basel, Switzerland). Real-time qPCR data were analyzed using the comparative CT method. Sample sizes were 10–15 mice per group.

[5] = hippocampal brain lysates, 5xFAD mice

Compound: COc1ccc(-c2cc(=O)oc3c(C)c(OC(=O)[C@H](Cc4c[nH]c5ccccc45)NC(=O)OC(C)(C)C)ccc23)cc1 [DTMB]
- levels of microglial activation markers (Iba-1, Trem2, and Cd68) (5xFAD mice [1]): markedly decreased
- levels of proinflammatory cytokines (Tnf-α, Il-6, and Il-1β) (5xFAD mice [1]): markedly decreased
- target quadrant occupancy (probe test, day 6) (5xFAD mice [2]): markedly improved
- gene expression level of Ece1 (5xFAD mice [3]; hippocampus): significantly increased
- expression of neprilysin (5xFAD mice [3]; hippocampus and cortex, not statistically significant (p-value is 0.27)): increased
- level of cytokines (TNF-α, IL-1β, IL-6) induced by inflammatory signals (primary microglia): dramatically reduced
- expression levels of proinflammatory cytokines and related enzymes (Il-1β, Il-6, and Inos) (5xFAD mice [4]; 5xFAD mouse brain, 10 mg/kg orally, 3 months): decreased
- level of ASC (5xFAD mice [4]; [5]): not changed significantly
- protein level of NF-κB (5xFAD mice [4]; [5]): decreased
- protein level of NLRP3 (5xFAD mice [4]; [5]): decreased
